Test results taken from patent publication US8742132B2, “Indolylmaleimide derivatives processes for their production and pharmaceutical compositions” (Novartis AG, priority 2006, dated 2014).

Key:
Human recombinant PKCβ1 = molecular target: T1, Human recombinant PKCβ1 (Homo sapiens, UniProt P05771); assay: Protein Kinase Cβ1 Assay; assay type: biochemical; settings: single compounds
T1 construct: purchased Oxford Biomedical Research
Experimental: (§1) The compounds of the invention are tested for their activity on different PKC isoforms according to the following method. Assay is performed in a white with clear bottom 384-well microtiterplate with non-binding surface. The reaction mixture (25 μl) contains 1.5 μM of a tridecapeptide acceptor substrate that mimics the pseudo substrate sequence of PKC a with the Ala→Ser replacement, 10 μM ^33P-ATP, 10 mM Mg(NO3)2, 0.2 mM CaCl2, PKC at a protein concentration varying from 25 to 400 ng/ml (depending on the isotype used), lipid vesicles (containing 30 mol % phosphatidylserine, 5 mol % DAG and 65 mol % phosphatidylcholine) at a final lipid concentration of 0.5 mM, in 20 mM Tris-HCl buffer pH 7.4 +0.1% BSA. Incubation is performed for 60 min at room temperature. Reaction is stopped by adding 50 μl of stop mix (100 mM EDTA, 200 μM ATP, 0.1% Triton X-100, 0.375 mg/well streptavidin-coated SPA beads in phosphate buffered saline w/o Ca, Mg. After 10 min incubation at room temperature, the suspension is spun down for 10 min at 300 g. Incorporated radioactivity is measured in a Trilux counter for 1 min. IC50 measurement is performed on a routine basis by incubating a serial dilution of inhibitor at concentrations ranging between […]. IC50 values are calculated from the graph by curve fitting with XL Fit® software. […]

Human recombinant PKCα = molecular target: T2, Human recombinant PKCα (Homo sapiens, UniProt P17252); assay: Protein Kinase Cα Assay; assay type: biochemical; settings: single compounds
T2 construct: purchased Oxford Biomedical Research
Experimental: as §1

T1 sequence (P05771 whole entry): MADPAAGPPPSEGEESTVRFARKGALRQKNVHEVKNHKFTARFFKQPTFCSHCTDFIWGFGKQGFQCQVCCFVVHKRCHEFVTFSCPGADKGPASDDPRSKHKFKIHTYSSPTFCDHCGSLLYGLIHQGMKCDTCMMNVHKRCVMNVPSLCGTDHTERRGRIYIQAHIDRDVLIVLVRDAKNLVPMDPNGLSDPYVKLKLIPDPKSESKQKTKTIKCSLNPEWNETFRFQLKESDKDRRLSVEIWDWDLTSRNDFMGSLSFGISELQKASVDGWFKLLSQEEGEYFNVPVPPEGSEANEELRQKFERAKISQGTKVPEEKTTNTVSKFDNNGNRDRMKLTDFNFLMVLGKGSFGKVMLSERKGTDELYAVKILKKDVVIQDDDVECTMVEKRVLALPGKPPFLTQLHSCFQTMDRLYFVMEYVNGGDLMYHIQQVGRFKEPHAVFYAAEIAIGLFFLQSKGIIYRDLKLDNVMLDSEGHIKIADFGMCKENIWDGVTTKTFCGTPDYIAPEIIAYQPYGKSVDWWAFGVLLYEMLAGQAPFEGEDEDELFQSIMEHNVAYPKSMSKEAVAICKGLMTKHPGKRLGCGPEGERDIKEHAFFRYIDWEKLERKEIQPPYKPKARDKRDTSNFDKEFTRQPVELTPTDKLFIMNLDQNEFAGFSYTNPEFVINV

## Cc1cc2ccc(CN(C)C)cn2c1C1=C(c2c[nH]c3ccccc23)C(=O)NC1=O [Example 24, 3-(6-Dimethylaminomethyl-2-methyl-indolizin-3-yl)-4-(1H-indol-3-yl)-pyrrole-2,5-dione]
Human recombinant PKCβ1
  IC50: 18.2 nM

## Cc1ccc2c(C3=C(c4c(C(F)(F)F)[nH]c5ccc(CN(C)C)cc45)C(=O)NC3=O)c[nH]c2c1 [Example 47]
Human recombinant PKCβ1
  IC50: 0.9 nM

## CNCc1ccc2[nH]c(C)c(C3=C(c4cn(C)c5ccccc45)C(=O)NC3=O)c2c1 [Example 51]
Human recombinant PKCα
  IC50: 0.3 nM
